The IC50 is the concentration that gives 50% inhibition. A lower IC50 goes with inhibition by little substance. The inhibition is the percentage by which the read-out fell short of the control. A high value points to strong suppression.

This is an account of results in patent US20030050307A1, “Novel indole derivatives” (H. Lundbeck A/S, priority 1999, published 2003).

Experiment [1] concerns the target T1, cloned human 5-HT1A-receptors (Homo sapiens, UniProt P08908).
T1 construct: expressed in transfected cells; host or cells: HeLa cells (HA7)
T1 sequence (P08908 1-422): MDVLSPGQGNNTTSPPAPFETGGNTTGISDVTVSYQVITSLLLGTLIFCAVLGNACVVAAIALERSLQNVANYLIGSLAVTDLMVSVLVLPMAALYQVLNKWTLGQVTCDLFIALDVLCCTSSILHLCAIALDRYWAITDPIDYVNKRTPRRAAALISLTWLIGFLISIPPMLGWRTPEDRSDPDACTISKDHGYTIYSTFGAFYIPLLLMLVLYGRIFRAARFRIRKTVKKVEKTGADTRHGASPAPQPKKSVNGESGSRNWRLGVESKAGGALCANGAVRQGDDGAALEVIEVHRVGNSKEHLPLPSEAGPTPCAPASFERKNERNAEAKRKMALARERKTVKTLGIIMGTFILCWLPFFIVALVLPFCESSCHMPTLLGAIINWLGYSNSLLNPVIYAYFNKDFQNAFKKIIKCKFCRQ
Description: Inhibition of 3H-5-CT binding to human 5-HT1A receptors. To be noted: transfected HeLa cells (HA7), 15 minutes at 37° C., pH 7.7; for inhibition at 0.05 µM: at 50 nM. The procedure:
The affinity of the compounds of the invention to 5-HT1A receptors was determined by measuring the inhibition of binding of a radioactive ligand at 5-HT1A-receptors as described in the following test:
Inhibition of ^3H-5-CT Binding to Human 5-HT1A Receptors.
By this method, the inhibition by drugs of the binding of the 5-HT1A-agonist ^3H-5-carboxamido tryptamine (^3H-5-CT) to cloned human 5-HT1A-receptors stably expressed in transfected HeLa cells (HA7) (Fargin, A. et al. J. Biol. Chem. 1989, 264, 14848) is determined in vitro. The assay was performed as a modification of the method described by Harrington, M. A. et al. J. Pharmacol. Exp. Ther. 1994, 268, 1098. Human 5-HT1A-receptors (40 μg of cell homogenate) were incubated for 15 minutes at 37° C. in 50 mM Tris buffer at pH 7.7 in the presence of ^3H-5-CT. Non-specific binding was determined by including 10 μM of metergoline. The reaction was terminated by rapid filtration through Unifilter GF/B filters on a Tomtec Cell Harvester. Filters were counted in a Packard Top Counter.

Experiment [2] has as its target T2, human cloned dopamine D4.2-receptors (Homo sapiens, UniProt P21917, DEL265-296).
T2 construct: expressed in transfected cells; host or cells: CHO cells
T2 sequence (P21917 with tags, fused parts or gaps DEL265-296): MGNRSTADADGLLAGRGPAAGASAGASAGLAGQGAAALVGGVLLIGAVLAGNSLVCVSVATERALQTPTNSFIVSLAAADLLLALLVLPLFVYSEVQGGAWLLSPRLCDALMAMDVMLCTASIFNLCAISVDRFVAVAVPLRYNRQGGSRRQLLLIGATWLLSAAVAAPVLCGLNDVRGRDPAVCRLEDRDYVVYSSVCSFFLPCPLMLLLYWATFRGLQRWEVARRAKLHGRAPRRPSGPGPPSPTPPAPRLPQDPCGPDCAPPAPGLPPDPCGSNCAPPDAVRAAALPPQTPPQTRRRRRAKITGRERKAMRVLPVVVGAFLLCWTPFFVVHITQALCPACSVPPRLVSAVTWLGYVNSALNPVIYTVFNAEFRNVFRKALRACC
Put plainly: Inhibition of the binding of 3H-YM-09151-2 to human dopamine D4 receptors. To be noted: [3H]YM-09151-2 0.06 nM; for IC50: membranes of CHO-cells expressing human D4.2; for inhibition at 0.1 µM: at 100 nM, CHO-cell membranes, human D4.2. The procedure: Inhibition of the Binding of ^3H-YM-09151-2 to Human Dopamine D4 Receptors
By this method, the inhibition by drugs of the binding of [^3H]YM-09151-2 (0.06 nM) to membranes of human cloned dopamine D4.2-receptors expressed in CHO-cells is determined in vitro. Method modified from NEN Life Science Products, Inc., technical data certificate PC2533-10/96.

As for `Clc1ccccc1SCCCN1CCN(c2cccc3[nH]ccc23)CC1` [Compound 2a, 4-{4-[3-(2-Chloro-phenylsulfanyl)-propyl]-piperazin-1-yl}-1H-indole], the IC50 in experiment [1] worked out at 2.4 nM; in experiment [2], 1.1 nM.

As for `Brc1ccccc1SCCCN1CCN(c2cccc3[nH]ccc23)CC1` [Compound 2b, 4-(4-[3-(2-Bromo-phenylsulfanyl)-propyl]-piperazin-1-yl}-1H-indole], the IC50 in experiment [1] was 2.7 nM; in experiment [2], 1.2 nM.

On to `Fc1ccc(OCCCCN2CCN(c3cccc4[nH]ccc34)CC2)c(Br)c1` [Compound 2d, 4-{4-[4-(2-Bromo-4-fluoro-phenoxy)-butyl]-piperazin-1-yl}-1H-indole], for which the results for the IC50 in experiment [1] and in experiment [2] were 6.4 nM and 1.6 nM, respectively.

`Cc1cccc(Cl)c1SCCCCN1CCN(c2cccc3[nH]ccc23)CC1` [Compound 2e, 4-{4-[4-(2-Chloro-6-methyl-phenylsulfanyl)-butyl]-piperazin-1-yl}-1H-indole]: the IC50 was determined as 4.5 nM in experiment [1] and 2.2 nM in experiment [2].

Regarding `Fc1ccc(SCCN2CCN(c3cccc4[nH]ccc34)CC2)c(Cl)c1` [Compound 3a, 4-{4-[2-(2-Chloro-4-fluoro-phenylsulanyl)-ethyl]-piperazin-1-yl}-1H-indole], the IC50 was 15 nM in experiment [1] and 6.6 nM in experiment [2].

For the compound `Fc1ccc(SCCCN2CCN(c3cccc4[nH]ccc34)CC2)c(Cl)c1` [Compound 4a], the values for the IC50 in experiment [1] and in experiment [2] were 9.3 nM and 0.52 nM, respectively.

For `Fc1ccc(OCCCCN2CCN(c3cccc4[nH]ccc34)CC2)c(Br)c1` [Compound 4b, 4-{4-[4-(2-Bromo-4-fluoro-phenoxy)-butyl]-piperazin-1-yl}-1H-indole], the IC50 in experiment [1] was determined as 2.4 nM; in experiment [2], 0.66 nM.

In the case of `Fc1ccc(OCCCN2CCN(c3cccc4[nH]ccc34)CC2)c(F)c1` [Compound 4c], the IC50 in experiment [1] was found to be 5.4 nM; in experiment [2], 1.6 nM.

Turning to `Clc1cccc(Cl)c1SCCCCN1CCN(c2cccc3[nH]ccc23)CC1` [Compound 4d, 4-{4-[4-(2,6-Dichloro-phenylsulfanyl)-butyl]-piperazin-1-yl}-1H-indole], the IC50 in experiment [1] was found to be 7.1 nM; in experiment [2], 1.8 nM.

`Fc1ccc(OCCCN2CCN(c3cccc4[nH]ccc34)CC2)c(Cl)c1` [Compound 4e, 4-{4-[3-(2-Chloro-4-fluoro-phenoxy)-propyl]-piperazin-1-yl}-1H-indole]: the IC50 came to 4.9 nM in experiment [1] and 2 nM in experiment [2].

As for `Cc1cccc(Cl)c1SCCCCN1CCN(c2cccc3[nH]ccc23)CC1` [Compound 4f], the IC50 in experiment [1] turned out to be 5.8 nM; in experiment [2] it was 3 nM.

As for `Fc1cc(Cl)c(OCCCCN2CCN(c3cccc4[nH]ccc34)CC2)c(Cl)c1` [Compound 4g, 4-{4-[4-(2,6-Dichloro-4-fluoro-phenoxy)-butyl]-piperazin-1-yl}-1H-indole], the values for the IC50 in experiment [1] and in experiment [2] were 2.4 nM and 4.9 nM, respectively.

For `Fc1cc(F)c(OCCCN2CCN(c3cccc4[nH]ccc34)CC2)c(Br)c1` [Compound 4h, 4-{4-[3-(2-Bromo-4,6-difluoro-phenoxy)-propyl]-piperazin-1-yl}-1H-indole], the IC50 in experiment [1] amounted to 1.4 nM; in experiment [2], 5.4 nM.

Turning to `Fc1cc(Cl)c(OCCCN2CCN(c3cccc4[nH]ccc34)CC2)c(Cl)c1` [Compound 4i, 4-{4-[3-(2,6-Dichloro-4-fluoro-phenoxy)-propyl]-piperazin-1-yl}-1H-indole], the figures for the IC50 in experiment [1] and in experiment [2] were 1 nM and 16 nM, respectively.

In the case of `Fc1cc(Br)cc(F)c1OCCCCN1CCN(c2cccc3[nH]ccc23)CC1` [Compound 4j, 4-{4-[4-(4-Bromo-2,6-difluoro-phenoxy)-butyl]-piperazin-1-yl}-1H-indole], the IC50 in experiment [1] amounted to 17 nM; in experiment [2], 23 nM.

On to `Fc1cc(Br)c(OCCCCN2CCN(c3cccc4[nH]ccc34)CC2)c(Br)c1` [Compound 4k, 4-{4-[4-(2,6-Dibromo-4-fluoro-phenoxy)-butyl]-piperazin-1-yl}-1H-indole], for which the IC50 in experiment [1] came to 6.7 nM; in experiment [2], 26 nM.

Take `Brc1cc(Br)c(OCCCN2CCN(c3cccc4[nH]ccc34)CC2)c(Br)c1` [Compound 4l, 14-{4-[3-(2,4,6-Tribromo-phenoxy)-propyl]-piperazin-1-yl}-1H-indole]: the IC50 was 1.1 nM in experiment [1] and 28 nM in experiment [2].

Consider `Fc1cc(Br)cc(F)c1OCCCN1CCN(c2cccc3[nH]ccc23)CC1` [Compound 4m, 4-{4-[3-(4-Bromo-2,6-difluoro-phenoxy)-propyl]-piperazin-1-yl}-1H-indole], for which the IC50 in experiment [1] was found to be 1 nM; in experiment [2], 39 nM.

For the compound `CCC(=O)c1cc(F)c(OCCCN2CCN(c3cccc4[nH]ccc34)CC2)c(F)c1` [Compound 4n, 1-(3,5-Difluoro-4-{3-[4-(1H-indol-4-yl)-piperazin-1-yl]-propoxy}-phenyl)-propan-1-one], the results for the IC50 in experiment [1] and in experiment [2] were 0.72 nM and 230 nM, respectively.

Turning to `N#Cc1cc(Br)c(OCCCN2CCN(c3cccc4[nH]ccc34)CC2)c(Br)c1` [Compound 4o, 3,5-Dibromo-4-{3-[4-(1H-indol-4-yl)-piperazin-1-yl]-propoxy}-benzonitrile], the figures for the IC50 in experiment [1] and in experiment [2] were 0.72 nM and 32 nM, respectively.

For `Fc1cc(F)c(OCCN2CCN(c3cccc4[nH]ccc34)CC2)c(Br)c1` [Compound 4p, 4-{4-[2-(2-Bromo-4,6-difluoro-phenoxy)-ethyl]-piperazin-1-yl}-1H-indole], the half-maximal inhibitory concentration (IC50) in experiment [1] came out at 36 nM; in experiment [2], 13 nM.

For the compound `Clc1cccc(Cl)c1SCCCN1CCN(c2cccc3[nH]ccc23)CC1` [Compound 4q, 4-{4-[3-(2,6-Dichloro-phenylsulfanyl)-propyl]-piperazin-1-yl}-1H-indole], the IC50 in experiment [1] stood at 3.5 nM; in experiment [2], 7.2 nM.

In the case of `Cc1cccc(C)c1OCCN1CCN(c2cccc3[nH]ccc23)CC1` [Compound 5aa, 4-{4-[2-(2,6-Dimethyl-phenoxy)-ethyl]-piperazin-1-yl}-1H-indole], the inhibition at 0.05 µM in experiment [1] was found to be 78%. In experiment [2], this compound had an inhibition at 0.1 µM of 81%.

Take `Cc1cccc(C)c1SCCCCN1CCN(c2cccc3[nH]ccc23)CC1` [Compound 5ab, 4-{4-[4-(2,6-Dimethyl-phenylsulfanyl)-butyl]-piperazin-1-yl}-1H-indole]: in experiment [1], 0.05 µM produced 83% inhibition. The same compound returned an inhibition at 0.1 µM in experiment [2] of 95%.

Consider `Cc1ccc(SCCN2CCN(c3cccc4[nH]ccc34)CC2)c(C)c1` [Compound 5ac, 4-{4-[2-(2,4-Dimethyl-phenylsulfanyl)-ethyl]-piperazin-1-yl}-1H-indole], for which, in experiment [1], testing at 0.05 µM gave an inhibition of 85%. The same compound came in with an inhibition at 0.1 µM in experiment [2] of 83%.

Compound `Clc1cccc(SCCN2CCN(c3cccc4[nH]ccc34)CC2)c1Cl` [Compound 5ad, 4-{4-[2-(2,3-Dichloro-phenylsulfanyl)-ethyl]-piperazin-1-yl}-1H-indole] registered an inhibition at 0.05 µM in experiment [1] of 76%. For the same compound, in experiment [2], the IC50 came out at 4.1 nM.

Take `C=CCc1cccc(Cl)c1OCCN1CCN(c2cccc3[nH]ccc23)CC1` [Compound 5ae, 4-{4-[2-(2-Allyl-6-chloro-phenoxy)-ethyl]-piperazin-1-yl}1H-indole]: in experiment [1], at 0.05 µM the inhibition was 92%. For the same compound, at 0.1 µM the inhibition in experiment [2] was 88%.

In the case of `FC(F)(F)c1ccccc1SCCCN1CCN(c2cccc3[nH]ccc23)CC1` [Compound 5af, 4-{4-[3-(2-Trifluoromethyl-phenylsulfanyl)-propyl]-piperazin-1-yl}-1H-indole], in experiment [1], the inhibition at 0.05 µM was found to be 93%. The compound also gave a half-maximal inhibitory concentration (IC50) in experiment [2] of 7.2 nM.
